{"source": "patent US20090238852A1", "about": "“METHODS FOR CONTROLLING INTRACELLULAR CALCIUM LEVELS ASSOCIATED WITH AN ISCHEMIC EVENT” (University of Utah Research Foundation, priority 2008, published 2009)", "key": {"[1]": {"test_system": "platelets with HIT antibody", "test": "Serotonin release assay (SRA) with HIT-positive serum", "conditions": "ODSH added with heparin to the HIT antibody", "experimental": "Two techniques were employed to measure platelet activation in response to heparin or 2-O desulfated heparin in the presence of HIT-reactive serum.\nThe first technique was the serotonin release assay (SRA), considered the gold standard laboratory test for HIT, and performed as described by Sheridan (Sheridan D, et al. Blood 67:27-30, 1986). Washed platelets were loaded with ^14C serotonin (^14C-hydroxy-tryptamine-creatine sulfate, Amersham), and then incubated with various concentrations of test heparin or heparin analog in the presence of serum from known HIT-positive patients as a source of antibody. Activation was assessed as ^14C serotonin release from platelets during activation, with ^14C serotonin quantitated using a liquid scintillation counter. […] Activated platelets are defined as percent isotope release of ≧20%.\nThe initial 3 ml (milliliters) of whole blood in the first syringe was discarded. The anticoagulated blood was centrifuged (80×g (gravity), 15 min, room temperature) to obtain platelet rich plasma (PRP). […] EDTA was added to stop the reaction, and the mixture was centrifuged to pellet the platelets. ^14C-serotonin released into the supernatant was measured on a scintillation counter. Maximal release was measured following platelet lysis with 10% Triton X-100. […]"}, "[2]": {"test_system": "rabbit ventricular myocytes", "test": "Intracellular calcium [Ca^++]i in ventricular myocytes during paced metabolic ischemia (PMI), Fluo-3 flow cytometry", "format": "cell-based", "source_text": "Consequently, it prevents intracellular sodium overload and subsequent reverse mode operation of the sodium-calcium exchanger. The effect of 2-O, 3-O desulfated heparin on accumulation of intracellular Ca^++ during ischemia was studied in an adult rabbit ventricular myocyte model previously reported (Boston D R, et al. J Pharmacol Exp Ther 285:716-723, 1998; Li F, et al. J Mol Cell Cardiol 33:2145-2155, 2001). Isolated cardiomyocytes have been validated as reliable models of ischemia (Diaz, R J, Wilson G J. Cardiovasc Res 70:286-296, 2006).\nTo produce the model, hearts are removed from albino rabbits (2-3 kg) anesthetized with sodium pentobarbital (65 mg/kg IV). The heart was immediately attached to an aorta cannula. Continuous perfusion of the coronary arteries at 37° C. by a pump (Masterflex, Cole-Parmer Instrument Co., Chicago, Ill.) was initiated at a perfusion pressure of 60 mm Hg. The heart was first perfused with nominally Ca^++-free modified Krebs-Ringer bicarbonate buffered solution (MKRBB, pH 7.40, containing in mmol/L: NaCl 126, KCl 4.4, […], MgCl2 1.0, HEPES 24, probenecid 0.5 and glucose 5) for 10 min, immediately followed by 15-25 min of recirculating perfusion with the same solutions containing 0.3 mg/ml collagenase (Type 2, Worthington Biochemical, Freehold, N.J.), 0.4 mg/mL hyaluronidase (Type-S, Sigma-Aldrich, St. Louis, Mo.) and 50 μmol/L CaCl2. The heart was then detached from the cannula, and the left ventricle was minced and transferred to a 50 mL conical tube with the same solution containing 0.24 mg/mL collagenase, 0.02 mg/mL trypsin and 50 μmol/L Ca^++ for a second digestion. The minced tissue was continuously agitated by gassing the solution with 5% CO2 and 95% O2 to help release isolated myocytes. The resulting supernatant was transferred to another conical tube with the same volume of the same solution containing 0.03 mg/mL of trypsin inhibitor (Sigma-Aldrich). The cell suspension was centrifuged at 5×g for 5 minutes. The supernatant was discarded and cells were resuspended in solution with a higher Ca^++ concentration (200 μmol/L) and incubated in a CO2 incubator (5% CO2, 28° C.) to settle down cells by gravity for 10 min. The same procedure was repeated twice to bring up the Ca^++ concentration slowly (500, then 1000 μmol/L). Calcium step-up solutions were made from MKRBB with 2% albumin, 50 μmol/L CaCl2 mixed with the appropriate amount of minimum essential medium (MEM, Gibco Laboratories, Grand Island, N.Y.). At the end of isolation, cells were filtered with a […] to avoid cell clumping during flow cytometry studies. The yield of rod-shaped viable myocytes averaged 50%. Cells were used for experiments within 4 hours after dissociation.\nIn these studies, intracellular calcium concentration [Ca^++]i was measured by flow cytometry. Measurement of isolated mouse and rabbit ventricular myocyte [Ca^2+]i and [Na^+]i by flow cytometry has been described (Zhang et al., J. Cardiovasc. Pharmacol. 51: 443-449 (2008); Li et al., J. Mol. Cell. Cardiol. 33: 2145-2155 (2001)). [Ca^++]i was measured with the Ca^++ sensitive fluorescent probe, Fluo 3-AM (Molecular Probes, Eugene, Oreg.), using a FACScan (Becton-Dickinson, MA). The cells were exposed to 4 μmol/L Fluo-3 AM for 30 min at 37° C. The cells were then separated into aliquots. After 40 min of wash, the cells were exposed to paced metabolic ischemia (MI) for 45 min at 37° C. Metabolic ischemia was accomplished by incubating cells in a glucose-free MKRBB solution (pH 7.40) containing 2 mmol/L sodium cyanide (NaCN) to impair mitochondrial and glycolytic generation of ATP. To reproduce the situation in the beating ischemic heart, during the period of metabolic ischemia, myocytes were placed in a 5-well chamber with equal volumes of myocyte suspensions from the same heart dissociation placed in each well. The chamber was water bathed to maintain temperature at 37° C. and bubbled with 5% CO2 in air to keep myocytes in suspension. […]"}}}
{"substance": "2-O, 3-O desulfated heparin [ODSH]", "values": [{"measurement": "effect on heparin-induced platelet activation", "setting": "[1]", "value": "prevented heparin from causing platelet activation"}, {"measurement": "effect on myocyte [Ca^2+]i during simulated ischemia", "setting": "[2]; 45 min P-MI, ODSH 1, 10, 100 μg/mL, FIG. 3", "value": "dose-dependent reduction of [Ca^2+]I"}, {"measurement": "further reduction in [Ca^2+]i in the presence of KBR", "setting": "[2]; ODSH 100 μg/mL with KBR 10 μmol/L, 45 min simulated ischemia, FIG. 4", "value": "no significant further reduction in [Ca^2+]i"}, {"measurement": "additional effect on Ca^2+ loading during P-MI in the presence of ranolazine", "setting": "[2]; ODSH 100 μg/ml with ranolazine 10 μM, FIG. 8", "value": "no additional effect on Ca^2+ loading"}, {"measurement": "[Ca^++]i", "setting": "[2]; PMI 45 min + ODSH 1 μg/mL, n = 7, PMI alone 1133.6 ± 78.4, Hepes 241.9 ± 23.0", "value": "1013.8 ± 69.2", "unit": "nM"}, {"measurement": "[Ca^++]i", "setting": "[2]; PMI 45 min + ODSH 10 μg/mL, n = 7, PMI alone 1133.6 ± 78.4", "value": "739.0 ± 63.8", "unit": "nM"}, {"measurement": "[Ca^++]i", "setting": "[2]; PMI 45 min + ODSH 100 μg/mL, n = 7, PMI alone 1133.6 ± 78.4", "value": "684.3 ± 66.9", "unit": "nM"}, {"measurement": "[Ca^++]i", "setting": "[2]; Table 6: PMI + ODSH 100 μg/mL, n = 7, PMI alone 985.5 ± 42.7, Hepes 269.6 ± 8.3", "value": "688.6 ± 33.4", "unit": "nM"}, {"measurement": "effect on [Ca^2+]i during P-MI", "setting": "[2]; each alone: ODSH 100 μg/ml, ranolazine 10 μM, FIG. 8, n = 7", "value": "reduced [Ca^2+]i to a similar degree"}]}
